Source: patent publication US6054437A, “Method for inducing death of neoplastic cells using piperazine derivatives” (Hitachi Chemical Research Center, Inc., priority 1997, dated 2000)
Where a name gives a salt, the structure may show the parent alone.

Experiments:
HEP-129 (liver) = experiment: Cancer cell death assay (LDH release), liver line; type: cell-based, human; settings: compound alone, 24 hours
Method: (§1) FIG. 4 is a graph showing the relationship between LDH released and the concentration of NCO-700 in cancer cell death assays of human cancer cell lines MCF-7 (breast), HL-60 (leukemia), and HEP-129 (liver).
(§2) 1. Cancer Cell Death Assay
(§3) Cell death was measured quantitatively by the release of a marker intracellular enzyme, lactate dehydrogenase (LDH), from damaged or killed cells. LDH released into the extracellular fluid, was measured 24 hours after drug exposure to cancer cells and the enzyme activity was determined by the method of Decker et al. (J. Immunolog Methods 15:61-99, 1988).
(§4) All cell lines used in the present study were obtained from the American Type Tissue Culture Laboratory and cultured according to their specifications. All were human cancer lines unless otherwise noted. The following cell lines and their tissue of origin used in our studies were:
(§5) The first assays performed measured the anti-neoplastic activity of NCO-700, alone, in cell death assays of a wide variety of human cancer cells. The results of these experiments are shown in FIGS. 1-6, where a dose-response curve of NCO-700 versus % LDH release is plotted, with higher values of LDH released indicating greater anti-neoplastic activity (apoptosis).

WIDR (colon) = experiment: Cancer cell survival assay, WIDR; type: cell-based, human; settings: seven days, alone
Method: Cell survival was assayed in cultured tumor cells. From 500-1000 cells per well were plated in 24-welled culture dishes and exposed to drug for seven days. After drug exposure, a computerized cell imaging technique was utilized to ascertain the number of viable cells remaining in each culture. From the data, survival curves were plotted and a ED50 (drug concentration that permits 50% cell survival) were calculated.
The cancer cell survival assay is an important additional in vitro assay to assess the anti-neoplastic activity of compounds as the cells are given a prolonged exposure (seven days) to the drug. FIGS. 9-16 show the effect of increasing the dose of NCO-700 on the survival of a number of cancer cell lines. […] In the figures, the vertical axis is the object area, which is the number of surviving cancer cells calculated by a computer.
FIGS. 26-31 show the effect of increasing the dose of TOP-008 against a number of cancer cell lines. […] For example, if the activity of NCO-700 and TOP-008 are compared against the human colon cancer cell line WIDR (FIG. 16 in Experiment 1 versus FIG. 31) it is seen that the effective dose of TOP-008 is much lower in this particular assay.

HL-60 (leukemia) = experiment: Cancer cell death assay (LDH release), leukemia line; type: cell-based, human; settings: compound alone, 24 hours
Method: as §1, §2, §3, §4, §5

[1] = test system: human prostate cancer cells; experiment: Subrenal capsule (SRC) tumor implant assay, prostate cancer; type: in vivo, human tumor in BDF/1 mice
Method: FIG. 17 is a graph showing the relationship between the mean change in size of tumor (delta mean) and the dosage of NCO-700 in a sub-renal capsule assay of human prostate cancer in BDF/1 mice.
3. In Vivo Model/Subrenal Capsule (SRC) Tumor Implant Assay
A tumor implant model, where human tumors were implanted into the renal capsule of mice was performed. The tumors successfully escaped the immune system of the mouse and grew over a six-day period. The advantage of this assay is that the effect of chemotherapeutic agents can be tested in vivo. This model was developed at the University of California, Irvine by Stratton et al. (Gynecologic Oncology 17:185-188, 1984). Human tumors were implanted on day one and were exposed to drug on days two-six. The size of the implant was determined at time zero and at the end of five days of drug treatment, and the difference in size of the implanted tumor at day six, when compared to control animals not exposed to drug, is referred to herein as the delta mean.
Human cancer cells can be grown in the sub-renal capsule of mice, where for a limited period of time they escaped the detection of the mouse's immune system. This assay provides a convenient system to study the effect of drugs on the growth of tumor cells in vivo. As this is a much more time-consuming assay, and requires more drug than the in vitro assays, the effect of NCO-700 was tested on a single prostate cancer cell line. Three groups of animals (n=23 total) were tested with three concentrations of NCO-700 including, 10 mg/kg, 20 mg/kg and 40 mg/kg.

HS-578T (breast) = experiment: Cancer cell death assay (LDH release), HS-578T; type: cell-based, human; settings: HS-578T, 25 μM, 1,000 and 1,500 cells/well (FIGS. 34, 35)
Method: as §2, §3
A series of analogs related to NCO-700 were assayed in the cancer cell death assay. […] It should be stressed that these analogs were tested alone, without any added chemotherapeutic agent.
Based on Experiment 1 above, the anti-cancer activity of NCO-700, TOP-008, and analogs, TOP-201, 202, 203, 204, 205, 206, 207, and 007, was tested in cancer cell death assays of human cancer cell line HS-578T. In FIGS. 34 (1,000 cells/well) and 35 (1,500 cells/well), a bar graph indicates the activity of a particular analog as measured by the % LDH released (DMSO, dimethyl sulfoxide=control), with higher values of LDH released indicating greater anti-neoplastic activity. All analogs were tested at a concentration of 25 μM.

[2] = test system: prostate cancer cell lines; experiment: Cancer cell death assay (LDH release), prostate lines; type: cell-based, human; settings: compound alone, 24 hours
Method: as §2, §3, §4, §5
In FIG. 8, a dose-response curve is shown of the effect of TOP-008 on the killing of breast, prostate and colon cell lines.

[3] = test system: melanoma cell lines B16F10 and SK-Mel-2; experiment: Cancer cell death assay (LDH release), melanoma lines; type: cell-based, mouse (B16F10); human (SK-Mel-2); settings: compound alone, 24 hours
Method: FIG. 2 is a graph showing the relationship between LDH released and the concentration of NCO-700 in cancer cell death assays of melanoma cell lines B16F10 (mouse line) and SK-Mel-2 (human line).
as §2, §3, §4, §5

[4] = Acute toxicity test, i.v. (LD50); settings: rat, in vivo, iv, rats
Text: This non-toxicity of the compounds makes it possible to administer the compounds to patients daily for a long period of time without interruption, without significant side effects, until the cancer tumors are suppressed. The non-toxicity, the apoptotic effects and the reversal of multidrug resistance of the compounds will change the procedures of conventional chemotherapy completely.

In the case of `CCOC(=O)[C@@H]1O[C@H]1C(=O)N[C@@H](CC(C)C)C(=O)N1CCN(Cc2ccc(OC)c(OC)c2OC)CC1` [NCO-700, Bis[ethyl (2R,3R)-3-[(S)-3-methyl-1-[4-(2,3,4-trimethoxyphenylmethyl)piperazin-1-ylcarbonyl]butylcarbamoyl]oxirane-2-carboxylate] Sulfate], the “anti-neoplastic activity (LDH release)” value (HEP-129 (liver)) is reported as “did not respond”, the “anti-neoplastic activity (cell survival)” value (WIDR (colon)) is reported as “significant anti-neoplastic activity” and the “anti-neoplastic activity (LDH release)” value (HL-60 (leukemia)) is reported as “did not respond”. For the same compound, the “effect on tumor size” value ([1]; 10 mg/kg) was “no effect”, the “effect on tumor size” value ([1]; 20 mg/kg) was “significant anti-neoplastic effect” and the “effect on tumor size” value ([1]; 40 mg/kg) was “highly significant”. The “anti-neoplastic activity (% LDH released)” value (HS-578T (breast)) was “fairly good anti-neoplastic activity”, the “anti-neoplastic activity (LDH release)” value [2] was “the cell lines that were testosterone receptor negative (and more malignant) responded very well” and the “anti-neoplastic activity (LDH release)” value [3] was “all cells lines showed sensitivity to NCO-700”. For the same compound, the LD50 [4] was 317 mg/kg.
